Where “and” joins values, the source holds several entries; their conditions need not be identical. Identical values can stand only once. Counter-ions that a name gives are not always drawn. Like-named read-outs stand apart in the source and are kept apart here.

Results on seven compounds are retold here after PMC13607727 (International Journal of Molecular Sciences, 2026).

One experiment has as its target 2019-nCoV S-RBD (Severe acute respiratory syndrome coronavirus 2, UniProt P0DTC2). It is filed as binding, SARS-CoV-2.
In a further experiment the target is 2019-nCoV S protein (Severe acute respiratory syndrome coronavirus 2, UniProt P0DTC2). The experiment is classed as binding, SARS-CoV-2. The conditions noted are these: for ΔTm: 100 µM.
A further experiment deals with HEK293T cells. It is filed as cell-based.
Experiment [1] deals with 2019-nCoV S protein–hACE2 complex (Severe acute respiratory syndrome coronavirus 2, UniProt P0DTC2). It is filed as cell-based, SARS-CoV-2; human.
The next experiment deals with Omicron BA.5 pseudovirus. It is filed as cell-based, SARS-CoV-2.
The test system of experiment [2] is Delta (B.1.617.2) pseudovirus. It is filed as cell-based, SARS-CoV-2.
A further experiment deals with 2019-nCoV pseudovirus. The experiment is classed as cell-based, SARS-CoV-2.
[3] abbreviates: read-out: KD (equilibrium dissociation constant).
[4] abbreviates: read-out: IC50 (concentration inducing 50% cell death).

As a reminder, the Kd is the concentration at which binding is half-saturated. In general, ΔTm refers to the shift of the melting midpoint relative to a reference. Take Bacitracin zinc [BZ]: the Kd at 2019-nCoV S-RBD (setting [3]) was found to be 11.4 µM. At 2019-nCoV S protein, the Tm turned out to be 43.4 °C and the ΔTm was −6.1 °C. Further, in the experiment on HEK293T cells (setting [4]), the CC50 stood at 79.9 µM. Also, in experiment [1], the “Reduction in S-protein pull-downs” value came out at 61.8% and the “Reduction in hACE2 pull-downs” value is listed as 95.7%.

One may read the IC50 as the concentration at which inhibition is half-maximal. In the case of `CCCCCCCCC=CCCCCCCCC(=O)OCC(C[N+](C)(C)C)OC(=O)CCCCCCCC=CCCCCCCCC` (centres unmarked) [DOTAP, DOTAP chloride], in the experiment with Omicron BA.5 pseudovirus, the “Effect on pseudovirus entry” value is “at 25 μM reduced the entry of 2019-nCoV and Omicron pseudoviruses”; the IC50 was over 100 µM. Also, the Kd at 2019-nCoV S-RBD (read-out: KD) was found to be 79 µM. Further, the Kd at 2019-nCoV S-RBD (setting [3]) turned out to be 49.9 µM. For the same compound, the Kd at 2019-nCoV S-RBD (read-out: Mean KD ± SD) stood at 64.5 ± 20.6 µM. Further, in experiment [2], the “Effect on pseudovirus entry” value is recorded as “limited efficacy against the Delta variant” and the IC50 was over 100 µM. Further, on 2019-nCoV S protein, the CETSA classification result is on record as “CETSA-positive”, the “Fold-change ratio of soluble S-protein band intensity relative to controls” value is given as 3.49 ± 0.50 and the ΔTm entry is “+9.1 °C”. Besides, in the experiment on 2019-nCoV pseudovirus, the “Effect on pseudovirus entry” value was “at 25 μM reduced the entry of 2019-nCoV and Omicron pseudoviruses”; the IC50 was over 100 µM. For the same compound, the Cell viability result in the experiment with HEK293T cells is “above 90%”. For the same compound, in experiment [1], the “Reduction in S-protein pull-downs” value stood at 51.4% and the “Reduction in hACE2 pull-downs” value came to 46.8%.

Consider `CC(OC(=O)OC1CCCCC1)OC(=O)C1=C(CSc2nnnn2CC[NH+](C)C)CSC2C(NC(=O)Cc3csc(N)n3)C(=O)N12` (centres unmarked) [CTM-HCl, cefotiam hexetil hydrochloride], for which, in the experiment on Omicron BA.5 pseudovirus, the “Effect on pseudovirus entry” value is “reduced entry of the ancestral and Omicron strains in a concentration-dependent manner”; the IC50 is over 100 µM. Moreover, the Kd on 2019-nCoV S-RBD (read-out: KD) worked out at 142 µM. Moreover, on 2019-nCoV S-RBD (setting [3]), the equilibrium dissociation constant (Kd) came out at 142 µM. Besides, at 2019-nCoV S-RBD (read-out: Mean KD ± SD), the Kd was determined as 142 µM. In experiment [2], the “Effect on pseudovirus entry” value is “marginal and detectable only at 50 μM”; the IC50 is over 100 µM. In addition, at 2019-nCoV S protein, the CETSA classification result is listed as “CETSA-positive”, the “Fold-change ratio of soluble S-protein band intensity relative to controls” value came to 1.64 ± 0.21 and the thermal shift (ΔTm) entry is “+2.2 °C”. In the experiment on 2019-nCoV pseudovirus, the “Effect on pseudovirus entry” value is “reduced entry of the ancestral and Omicron strains in a concentration-dependent manner”; the IC50 turned out to be 94.6 µM; the “Selectivity Index (SI)” value was over 1.06. For the same compound, in the experiment with HEK293T cells, the Cell viability entry is given as “above 90%”. In addition, the CC50 in the experiment on HEK293T cells (read-out: Cytotoxicity CC50) is over 100 µM. In experiment [1], the “Reduction in S-protein pull-downs” value turned out to be 32.5% and the “Reduction in hACE2 pull-downs” value came out at 7.9%.

For the compound DDAVP, on 2019-nCoV S protein, the Tm came to 48.9 °C and the ΔTm is −0.7 °C.

With angiotensin II [Ang II], the Kd at 2019-nCoV S-RBD (setting [3]) turned out to be 30.7 µM. At 2019-nCoV S protein, the Tm was found to be 55.4 °C and the ΔTm entry is “+5.8 °C”. In addition, the Cell viability entry in the experiment with HEK293T cells is “above 90%”. In experiment [1], the “Effect on S-RBD/hACE2 co-immunoprecipitation” value is “did not appreciably reduce”.

In the case of melittin, in the experiment on Omicron BA.5 pseudovirus, the “Effect on pseudovirus entry” value is listed as “reduced entry of all three pseudoviruses at 1.25 μM”, the IC50 was over 1.25 µM and the “Selectivity Index (SI)” value is under 1.84. Moreover, the Kd on 2019-nCoV S-RBD (read-out: KD) was 57 µM and 34.1 µM and 56.8 µM. Also, the Kd at 2019-nCoV S-RBD (setting [3]) stood at 35 µM. Besides, the Kd at 2019-nCoV S-RBD (read-out: Mean KD ± SD) came to 49.6 ± 12.2 µM. Besides, in experiment [2], the “Effect on pseudovirus entry” value is “reduced entry of all three pseudoviruses at 1.25 μM”, the IC50 was determined as 1.99 µM and the “Selectivity Index (SI)” value worked out at 1.16. Moreover, at 2019-nCoV S protein, the CETSA classification entry is on record as “did not meet the positive threshold”, the “Fold-change ratio of soluble S-protein band intensity relative to controls” value is on record as 2.70 ± 0.52 and the ΔTm entry is “+0.7 °C”. Also, in the experiment with 2019-nCoV pseudovirus, the “Effect on pseudovirus entry” value was “reduced entry of all three pseudoviruses at 1.25 μM”, 1.83 µM corresponded to half-maximal inhibition (IC50), the “Selectivity Index (SI)” value was 1.26 and the “Therapeutic index (SI)” value is ~ 1.2. Besides, in the experiment on HEK293T cells (read-out: Cytotoxicity CC50), the CC50 came out at 2.3 µM. Further, the CC50 in the experiment with HEK293T cells (setting [4]) was 2.3 µM. Besides, in experiment [1], the “Reduction in S-protein pull-downs” value came out at 85.1% and the “Reduction in hACE2 pull-downs” value turned out to be 65.8%.

As to `CC(=O)NC1C(OC2c3ccc(c(Cl)c3)Oc3cc4cc(c3OC3OC(CO)C(O)C(O)C3NC(=O)CCCCCCC(C)C)Oc3ccc(cc3Cl)CC3NC(=O)C(N)c5ccc(O)c(c5)Oc5cc(O)cc(c5)C(NC3=O)C(=O)NC4C(=O)NC3C(=O)NC2C(=O)NC(C(=O)O)c2cc(O)cc(OC4OC(CO)C(O)C(O)C4O)c2-c2cc3ccc2O)OC(CO)C(O)C1O` (centres unmarked) [teicoplanin], in the experiment with Omicron BA.5 pseudovirus, the “Effect on pseudovirus entry” value is recorded as “reduced Omicron pseudovirus entry in a concentration-dependent manner” and the IC50 is over 100 µM. In experiment [2], the “Effect on pseudovirus entry” value is “observed only at 100 μM” and the IC50 was over 100 µM. Also, at 2019-nCoV S protein, the CETSA classification result is “did not meet the positive threshold” and the ΔTm was −4.0 °C. In addition, in the experiment with 2019-nCoV pseudovirus, the “Effect on pseudovirus entry” value is “effective against the ancestral strain at 25–50 μM” and the IC50 is over 100 µM. In addition, the Cell viability result in the experiment with HEK293T cells is on record as “above 90%”. In the experiment with HEK293T cells (read-out: Cytotoxicity CC50), the CC50 was over 100 µM. In addition, in experiment [1], the “Reduction in S-protein pull-downs” value is recorded as 52.2% and the “Reduction in hACE2 pull-downs” value turned out to be 54.4%.
